# Columns and labels:
# Type in all cases: functional
# Cyberlindnera jadinii = assay: Antifungal activity against Candida utilis ATCC 9226 by M27-A3 protocol-based broth microdilution method; conditions: Williopsis jadinii
# Candida albicans = assay: Antifungal activity against Candida albicans ATCC 10231 by M27-A3 protocol-based broth microdilution method
# Candida tropicalis = assay: Antifungal activity against Candida tropicalis ATCC 13803 by M27-A3 protocol-based broth microdilution method
# Aspergillus fumigatus = assay: Antifungal activity against Aspergillus fumigatus ATCC 16907 by M38-A protocol-based broth microdilution method
# [1] = Antifungal activity against Trichosporon cutaneum ATCC 28592 by M38-A protocol-based microdilution method; conditions: Cutaneotrichosporon cutaneum
# Rhizopus arrhizus = assay: Antifungal activity against Rhizopus oryzae ATCC 10329 by M38-A protocol-based microdilution method
# Mucor hiemalis = assay: Antifungal activity against Mucor hiemalis ATCC 8690 by M38-A protocol-based microdilution method
MIC (Cyberlindnera jadinii),MIC (Candida albicans),MIC (Candida tropicalis),MIC (Aspergillus fumigatus),MIC [1],MIC (Rhizopus arrhizus),MIC (Mucor hiemalis),SMILES
16 µg/mL,16 µg/mL,16 µg/mL,16 µg/mL,16 µg/mL,16 µg/mL,16 µg/mL,N#Cc1nnn(C(Cn2ccnc2)c2ccc(Cl)cc2Cl)c1-c1ccccc1 (stereo unspecified)
16 µg/mL,16 µg/mL,16 µg/mL,16 µg/mL,16 µg/mL,8 µg/mL,16 µg/mL,CC(=O)c1nnn(C(Cn2ccnc2)c2ccc(Cl)cc2Cl)c1C (stereo unspecified)
16 µg/mL,16 µg/mL,8 µg/mL,16 µg/mL,16 µg/mL,2 µg/mL,0.12 µg/mL,Clc1ccc(C(Cn2ccnc2)n2nncc2C2CCCCC2)c(Cl)c1 (stereo unspecified)
0.25 µg/mL,0.06 µg/mL,0.06 µg/mL,2 µg/mL,0.12 µg/mL,0.5 µg/mL,0.25 µg/mL,CCCCCc1c(S(=O)(=O)c2ccccc2)nnn1C(Cn1ccnc1)c1ccc(Cl)cc1Cl (stereo unspecified)
2 µg/mL,0.03 µg/mL,0.03 µg/mL,0.5 µg/mL,8 µg/mL,8 µg/mL,16 µg/mL,CCCCC(C)(C)c1cnnn1C(Cn1ccnc1)c1ccc(Cl)cc1Cl (stereo unspecified)
16 µg/mL,4 µg/mL,1 µg/mL,16 µg/mL,16 µg/mL,16 µg/mL,16 µg/mL,CSc1ccc(-c2cnnn2C(Cn2ccnc2)c2ccc(Cl)cc2Cl)cc1 (stereo unspecified)
16 µg/mL,0.03 µg/mL,0.06 µg/mL,16 µg/mL,16 µg/mL,8 µg/mL,16 µg/mL,O=C(c1ccccc1)c1nnn(C(Cn2ccnc2)c2ccc(Cl)cc2Cl)c1-c1ccccc1 (stereo unspecified)

SMILES,MIC (Cyberlindnera jadinii),MIC (Candida albicans),MIC (Candida tropicalis),MIC (Aspergillus fumigatus),MIC [1],MIC (Rhizopus arrhizus),MIC (Mucor hiemalis)
CCC(C)n1ncn(-c2ccc(N3CCN(c4ccc(OCC5COC(Cn6cncn6)(c6ccc(Cl)cc6Cl)O5)cc4)CC3)cc2)c1=O (stereo unspecified) [ITRACONAZOLE],0.06 µg/mL,0.03 µg/mL,0.03 µg/mL,0.25 µg/mL,1 µg/mL,0.5 µg/mL,1 µg/mL
